Measurements as given in ChEMBL document CHEMBL3351387, “Bioisosteric replacement of an acylureido moiety attached to an indolin-2-one scaffold with a malonamido or a 2/4-pyridinoylamido moiety produces a selectively potent Aurora-B inhibitor” (Eur J Med Chem, 2014).

Experiments:
[1] = molecular target: Platelet-derived growth factor receptor beta (Homo sapiens, UniProt P09619); assay: Inhibition of PDGFRbeta (unknown origin) using poly[Glu:Tyr] (4:1) substrate by radioisotope-based P81 filter-binding assay
Sequence of Platelet-derived growth factor receptor beta (P09619 whole entry): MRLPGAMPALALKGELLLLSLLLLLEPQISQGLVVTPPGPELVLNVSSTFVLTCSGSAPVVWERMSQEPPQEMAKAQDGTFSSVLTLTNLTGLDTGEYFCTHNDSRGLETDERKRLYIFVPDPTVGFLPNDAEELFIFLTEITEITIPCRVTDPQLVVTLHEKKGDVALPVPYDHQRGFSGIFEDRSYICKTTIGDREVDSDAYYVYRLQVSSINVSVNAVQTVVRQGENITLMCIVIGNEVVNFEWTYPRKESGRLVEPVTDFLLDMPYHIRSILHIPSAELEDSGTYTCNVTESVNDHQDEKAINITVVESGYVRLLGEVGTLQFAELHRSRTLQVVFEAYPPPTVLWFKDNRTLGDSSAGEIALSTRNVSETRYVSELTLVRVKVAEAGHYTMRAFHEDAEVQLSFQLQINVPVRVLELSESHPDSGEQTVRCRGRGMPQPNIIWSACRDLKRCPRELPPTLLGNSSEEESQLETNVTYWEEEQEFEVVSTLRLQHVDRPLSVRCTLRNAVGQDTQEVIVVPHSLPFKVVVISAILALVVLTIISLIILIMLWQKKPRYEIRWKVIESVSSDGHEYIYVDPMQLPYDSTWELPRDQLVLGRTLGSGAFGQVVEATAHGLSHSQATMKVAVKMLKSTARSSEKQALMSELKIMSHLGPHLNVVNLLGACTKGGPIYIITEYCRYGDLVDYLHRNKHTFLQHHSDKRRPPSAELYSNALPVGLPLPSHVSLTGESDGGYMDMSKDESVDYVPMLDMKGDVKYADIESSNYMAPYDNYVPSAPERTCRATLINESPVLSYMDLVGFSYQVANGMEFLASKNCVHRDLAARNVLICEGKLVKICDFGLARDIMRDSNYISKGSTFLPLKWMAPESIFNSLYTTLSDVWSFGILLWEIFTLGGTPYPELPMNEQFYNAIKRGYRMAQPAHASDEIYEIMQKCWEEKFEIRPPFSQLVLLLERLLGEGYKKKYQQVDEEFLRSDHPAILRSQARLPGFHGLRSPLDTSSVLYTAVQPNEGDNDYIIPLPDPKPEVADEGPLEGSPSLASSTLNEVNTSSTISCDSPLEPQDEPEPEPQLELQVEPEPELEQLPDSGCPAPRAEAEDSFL

[2] = molecular target: Vascular endothelial growth factor receptor 2 (Homo sapiens, UniProt P35968); assay: Inhibition of VEGFR2 (unknown origin) using poly[Glu:Tyr] substrate by radioisotope-based P81 filter-binding assay
Sequence of Vascular endothelial growth factor receptor 2 (P35968 whole entry): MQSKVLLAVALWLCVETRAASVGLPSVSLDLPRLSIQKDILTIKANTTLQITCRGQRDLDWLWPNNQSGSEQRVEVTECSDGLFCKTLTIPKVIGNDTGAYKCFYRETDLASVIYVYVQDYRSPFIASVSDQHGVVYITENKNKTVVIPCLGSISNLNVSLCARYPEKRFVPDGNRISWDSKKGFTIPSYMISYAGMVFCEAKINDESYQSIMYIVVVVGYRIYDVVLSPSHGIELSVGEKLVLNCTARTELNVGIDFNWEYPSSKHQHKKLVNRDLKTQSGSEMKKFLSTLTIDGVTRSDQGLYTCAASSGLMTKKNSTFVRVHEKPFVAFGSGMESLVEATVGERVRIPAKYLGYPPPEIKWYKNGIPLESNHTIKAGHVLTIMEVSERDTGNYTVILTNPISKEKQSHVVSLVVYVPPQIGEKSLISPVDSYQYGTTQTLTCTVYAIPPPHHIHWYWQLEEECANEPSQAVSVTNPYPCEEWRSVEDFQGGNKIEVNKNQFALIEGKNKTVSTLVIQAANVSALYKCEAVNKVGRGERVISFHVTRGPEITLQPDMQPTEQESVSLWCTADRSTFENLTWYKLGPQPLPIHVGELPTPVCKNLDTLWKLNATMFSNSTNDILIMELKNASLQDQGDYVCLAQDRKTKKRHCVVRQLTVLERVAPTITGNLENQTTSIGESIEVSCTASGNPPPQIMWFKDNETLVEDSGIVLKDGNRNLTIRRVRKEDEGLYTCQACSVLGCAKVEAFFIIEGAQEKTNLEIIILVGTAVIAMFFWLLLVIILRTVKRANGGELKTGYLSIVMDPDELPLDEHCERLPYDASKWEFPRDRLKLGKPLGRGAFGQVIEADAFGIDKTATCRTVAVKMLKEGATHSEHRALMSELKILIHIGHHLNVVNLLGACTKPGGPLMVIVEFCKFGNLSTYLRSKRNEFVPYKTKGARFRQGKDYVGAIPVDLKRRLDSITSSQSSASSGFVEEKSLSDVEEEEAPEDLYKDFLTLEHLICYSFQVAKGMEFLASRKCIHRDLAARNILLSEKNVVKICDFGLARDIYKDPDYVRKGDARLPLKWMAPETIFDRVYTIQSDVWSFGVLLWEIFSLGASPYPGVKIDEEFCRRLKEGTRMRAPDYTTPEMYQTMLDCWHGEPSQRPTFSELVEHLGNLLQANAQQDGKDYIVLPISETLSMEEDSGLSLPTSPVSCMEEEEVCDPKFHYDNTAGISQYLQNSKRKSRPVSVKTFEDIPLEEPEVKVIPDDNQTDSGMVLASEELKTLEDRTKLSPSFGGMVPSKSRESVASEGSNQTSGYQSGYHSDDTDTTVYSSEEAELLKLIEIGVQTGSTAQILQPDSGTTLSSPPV

Aurora kinase A = molecular target: T1, Aurora kinase A (Homo sapiens, UniProt O14965); assay: Inhibition of Aurora A (unknown origin) using H-LRRASLG substrate by radioisotope-based P81 filter-binding assay
T1 sequence (O14965 whole entry): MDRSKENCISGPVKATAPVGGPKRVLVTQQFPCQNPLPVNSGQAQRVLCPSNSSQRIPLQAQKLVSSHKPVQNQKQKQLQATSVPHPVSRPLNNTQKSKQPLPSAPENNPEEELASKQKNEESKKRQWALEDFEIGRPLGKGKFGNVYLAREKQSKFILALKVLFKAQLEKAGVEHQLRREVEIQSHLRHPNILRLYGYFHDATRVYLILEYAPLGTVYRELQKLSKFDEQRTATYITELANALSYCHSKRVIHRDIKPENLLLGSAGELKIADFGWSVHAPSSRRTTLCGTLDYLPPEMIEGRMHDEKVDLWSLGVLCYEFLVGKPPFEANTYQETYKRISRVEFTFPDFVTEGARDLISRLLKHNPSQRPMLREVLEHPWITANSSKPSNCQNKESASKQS

HepG2 = assay: Cytotoxicity against human HepG2 cells by SRB assay; format: cell-based
[3] = molecular target: T2, Receptor-type tyrosine-protein kinase FLT3 (Homo sapiens, UniProt P36888); assay: Inhibition of Flt3 (unknown origin) using EAIYAAPFAKKK substrate by radioisotope-based P81 filter-binding assay
T2 sequence (P36888 whole entry): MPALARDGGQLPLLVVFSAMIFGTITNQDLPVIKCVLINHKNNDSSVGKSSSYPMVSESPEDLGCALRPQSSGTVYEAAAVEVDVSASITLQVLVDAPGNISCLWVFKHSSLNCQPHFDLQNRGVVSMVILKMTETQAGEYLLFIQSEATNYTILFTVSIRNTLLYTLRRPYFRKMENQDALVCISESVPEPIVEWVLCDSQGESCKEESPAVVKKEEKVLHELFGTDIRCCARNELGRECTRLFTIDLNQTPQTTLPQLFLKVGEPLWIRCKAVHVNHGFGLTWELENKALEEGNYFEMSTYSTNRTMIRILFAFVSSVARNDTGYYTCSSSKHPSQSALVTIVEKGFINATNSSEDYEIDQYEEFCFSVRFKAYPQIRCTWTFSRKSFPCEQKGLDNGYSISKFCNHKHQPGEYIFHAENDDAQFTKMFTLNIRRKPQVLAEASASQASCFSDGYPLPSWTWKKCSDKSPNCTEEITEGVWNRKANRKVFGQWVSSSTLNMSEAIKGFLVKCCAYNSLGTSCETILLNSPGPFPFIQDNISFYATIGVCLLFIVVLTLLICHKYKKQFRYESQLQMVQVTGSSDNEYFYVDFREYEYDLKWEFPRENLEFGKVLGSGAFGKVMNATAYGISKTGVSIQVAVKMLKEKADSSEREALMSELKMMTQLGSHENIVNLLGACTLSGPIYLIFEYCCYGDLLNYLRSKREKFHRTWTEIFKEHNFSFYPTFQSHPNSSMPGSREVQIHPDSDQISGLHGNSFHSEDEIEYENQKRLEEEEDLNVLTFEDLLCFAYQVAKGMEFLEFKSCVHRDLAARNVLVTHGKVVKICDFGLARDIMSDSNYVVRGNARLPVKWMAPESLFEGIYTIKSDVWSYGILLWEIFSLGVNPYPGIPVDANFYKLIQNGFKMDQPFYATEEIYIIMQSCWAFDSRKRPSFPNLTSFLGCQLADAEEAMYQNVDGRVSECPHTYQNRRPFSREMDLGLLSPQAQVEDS

A549 [4] = assay: Cytotoxicity against human A549 cells by SRB assay; format: cell-based
Aurora kinase C = molecular target: T3, Aurora kinase C (Homo sapiens, UniProt Q9UQB9); assay: Inhibition of Aurora C (unknown origin) using H-LRRASLG substrate by radioisotope-based P81 filter-binding assay
T3 sequence (Q9UQB9 whole entry): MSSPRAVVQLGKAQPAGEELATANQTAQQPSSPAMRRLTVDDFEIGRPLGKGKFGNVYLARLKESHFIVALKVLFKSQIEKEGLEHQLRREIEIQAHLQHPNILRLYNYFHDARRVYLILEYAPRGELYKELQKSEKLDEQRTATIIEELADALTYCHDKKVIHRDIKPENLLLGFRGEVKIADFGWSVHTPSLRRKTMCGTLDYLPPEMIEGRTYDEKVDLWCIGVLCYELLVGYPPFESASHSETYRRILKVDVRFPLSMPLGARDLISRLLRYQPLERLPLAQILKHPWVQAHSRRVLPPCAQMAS

[5] = molecular target: Platelet-derived growth factor receptor alpha (Homo sapiens, UniProt P16234); assay: Inhibition of PDGFRalpha (unknown origin) using poly[Glu:Tyr] (4:1) substrate by radioisotope-based P81 filter-binding assay
Sequence of Platelet-derived growth factor receptor alpha (P16234 whole entry): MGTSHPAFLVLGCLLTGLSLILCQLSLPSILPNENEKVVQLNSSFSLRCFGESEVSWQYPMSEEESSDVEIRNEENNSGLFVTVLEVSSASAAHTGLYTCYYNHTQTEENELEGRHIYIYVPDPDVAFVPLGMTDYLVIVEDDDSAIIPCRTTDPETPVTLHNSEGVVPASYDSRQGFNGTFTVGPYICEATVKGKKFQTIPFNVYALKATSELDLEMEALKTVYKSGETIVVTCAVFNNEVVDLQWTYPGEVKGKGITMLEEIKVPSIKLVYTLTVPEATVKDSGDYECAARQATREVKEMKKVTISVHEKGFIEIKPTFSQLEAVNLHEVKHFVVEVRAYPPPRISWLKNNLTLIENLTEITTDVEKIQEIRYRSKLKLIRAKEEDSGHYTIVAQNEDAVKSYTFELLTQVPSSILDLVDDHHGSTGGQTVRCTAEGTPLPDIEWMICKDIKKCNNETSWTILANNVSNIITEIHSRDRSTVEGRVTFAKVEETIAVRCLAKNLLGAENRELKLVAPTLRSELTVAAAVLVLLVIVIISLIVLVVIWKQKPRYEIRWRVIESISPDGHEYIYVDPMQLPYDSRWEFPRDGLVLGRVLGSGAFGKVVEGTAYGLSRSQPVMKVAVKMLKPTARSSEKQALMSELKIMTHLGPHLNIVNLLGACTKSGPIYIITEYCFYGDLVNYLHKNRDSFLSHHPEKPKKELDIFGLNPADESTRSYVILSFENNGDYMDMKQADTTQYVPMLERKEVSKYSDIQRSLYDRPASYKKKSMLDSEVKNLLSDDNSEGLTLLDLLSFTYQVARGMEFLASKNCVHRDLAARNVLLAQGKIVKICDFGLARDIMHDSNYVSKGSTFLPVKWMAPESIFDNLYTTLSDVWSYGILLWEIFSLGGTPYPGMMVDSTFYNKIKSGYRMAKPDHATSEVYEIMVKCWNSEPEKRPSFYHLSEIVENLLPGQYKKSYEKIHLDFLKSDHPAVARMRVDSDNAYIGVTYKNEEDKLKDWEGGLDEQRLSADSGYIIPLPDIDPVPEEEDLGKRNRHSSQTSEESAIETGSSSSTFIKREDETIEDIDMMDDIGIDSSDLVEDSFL

Aurora kinase B = Aurora kinase B (Homo sapiens, UniProt Q96GD4); assay: Inhibition of Aurora B (unknown origin) using H-LRRASLG substrate by radioisotope-based P81 filter-binding assay
Sequence of Aurora kinase B (Q96GD4 whole entry): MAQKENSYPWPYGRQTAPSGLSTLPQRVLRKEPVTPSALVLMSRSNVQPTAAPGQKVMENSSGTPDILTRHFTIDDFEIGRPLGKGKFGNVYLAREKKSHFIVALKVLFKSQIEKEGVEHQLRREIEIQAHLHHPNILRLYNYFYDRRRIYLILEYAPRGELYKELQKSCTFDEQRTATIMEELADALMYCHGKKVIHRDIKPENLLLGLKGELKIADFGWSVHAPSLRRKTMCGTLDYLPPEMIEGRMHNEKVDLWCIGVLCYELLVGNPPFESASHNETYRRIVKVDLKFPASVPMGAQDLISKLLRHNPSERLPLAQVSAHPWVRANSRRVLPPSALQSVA

[6] = molecular target: Hepatocyte growth factor receptor (Homo sapiens, UniProt P08581); assay: Inhibition of c-Met (unknown origin) using KKKSPGEYVNIEFG substrate by radioisotope-based P81 filter-binding assay
A549 [7] = assay: Antimigratory activity against human A549 cells assessed as inhibition of cell migration after 8 to 16 hrs by scratch wound model assay
A549 [8] = assay: Anti-invasive activity against human A549 cells assessed as inhibition of cell invasion by transwell invasion assay

O=C(CC(=O)Nc1ccc2c(c1)NC(=O)/C2=C\c1ccc[nH]1)Nc1ccc(F)cc1
IC50 [1]: 0.0869 µM
IC50 [2]: 1.77 µM
IC50 (Aurora kinase A): 0.552 µM
IC50 (HepG2): 1.8 µM
IC50 [3]: 0.011 µM
IC50 (A549 [4]): 0.7 µM
IC50 (Aurora kinase C): 0.0672 µM
IC50 [5]: 0.0072 µM

COc1ccc(NC(=O)CC(=O)Nc2ccc3c(c2)NC(=O)/C3=C\c2ccc[nH]2)cc1
IC50 [1]: 0.177 µM
IC50 (HepG2): 2.8 µM
IC50 [3]: 0.0166 µM
IC50 (A549 [4]): 3.8 µM

COc1ccc(NC(=O)CC(=O)Nc2ccc3c(c2)NC(=O)/C3=C\c2[nH]c(C)c(C(=O)O)c2C)cc1
IC50 [1]: 0.0081 µM
IC50 (Aurora kinase A): 0.203 µM
IC50 (HepG2): 7.8 µM
IC50 (Aurora kinase B): 0.0059 µM
IC50 [3]: 0.0064 µM
IC50 (A549 [4]): 5.4 µM
IC50 (Aurora kinase C): 0.153 µM
IC50 [5]: < 0.001 µM
IC50 [6]: 0.0311 µM

COc1ccc(NC(=O)CC(=O)Nc2ccc3c(c2)NC(=O)/C3=C\c2[nH]c(C)c(C(=O)NCCN3CCCC3)c2C)cc1
IC50 [1]: 0.00154 µM
IC50 [2]: 0.0207 µM
IC50 (HepG2): 5.1 µM
IC50 (Aurora kinase B): 0.093 µM
IC50 [3]: 0.0021 µM
IC50 (A549 [4]): 5.4 µM
IC50 [5]: < 0.001 µM
IC50 [6]: 0.0106 µM

O=C1Nc2cc(NC(=O)C3(C(=O)Nc4ccc(F)cc4)CC3)ccc2/C1=C/c1ccc[nH]1
IC50 (HepG2): 1 µM
IC50 (Aurora kinase B): 0.253 µM
IC50 (A549 [4]): 0.9 µM

COc1ccc(NC(=O)C2(C(=O)Nc3ccc4c(c3)NC(=O)/C4=C\c3ccc[nH]3)CC2)cc1
IC50 (HepG2): 3.9 µM
IC50 (A549 [4]): 5.9 µM

O=C1Nc2cccc(NC(=O)c3cccn(-c4ccc(F)cc4)c3=O)c2/C1=C/c1ccc[nH]1
IC50 (HepG2): 4.6 µM
IC50 (A549 [4]): 4.8 µM

O=C1Nc2ccc(NC(=O)c3cccn(-c4ccc(F)cc4)c3=O)cc2/C1=C/c1ccc[nH]1
IC50 (HepG2): 5.4 µM
IC50 (A549 [4]): 5.4 µM

O=C1Nc2c(NC(=O)c3cccn(-c4ccc(F)cc4)c3=O)cccc2/C1=C/c1ccc[nH]1
IC50 (HepG2): 3.9 µM
IC50 (A549 [4]): 4.5 µM

O=C1Nc2cc(NC(=O)c3cccn(-c4ccc(F)cc4)c3=O)ccc2/C1=C/c1ccc[nH]1
IC50 (HepG2): 0.9 µM
IC50 (A549 [4]): 0.7 µM
IC50 (A549 [7]): 7.3 µM
IC50 (A549 [8]): > 10 µM

COc1ccc(-n2cccc(C(=O)Nc3ccc4c(c3)NC(=O)/C4=C\c3ccc[nH]3)c2=O)cc1
IC50 (HepG2): 5.6 µM
IC50 (A549 [4]): 3.3 µM

O=C1Nc2cc(NC(=O)c3cccn(-c4ccccc4)c3=O)ccc2/C1=C/c1ccc[nH]1
IC50 (HepG2): 5.8 µM
IC50 (A549 [4]): 4.7 µM

Cc1ccc(-n2cccc(C(=O)Nc3ccc4c(c3)NC(=O)/C4=C\c3ccc[nH]3)c2=O)cc1
IC50 (HepG2): 4.2 µM
IC50 (A549 [4]): 1.6 µM

O=C1Nc2cc(NC(=O)c3cccn(-c4ccc(Cl)cc4)c3=O)ccc2/C1=C/c1ccc[nH]1
IC50 (HepG2): 6.7 µM
IC50 (A549 [4]): 4.9 µM

O=C1Nc2cc(NC(=O)c3cccn(-c4ccc(C(F)(F)F)cc4)c3=O)ccc2/C1=C/c1ccc[nH]1
IC50 (HepG2): 3.1 µM
IC50 (A549 [4]): 3.7 µM

O=C1Nc2cc(NC(=O)c3cccn(-c4cccc(Cl)c4)c3=O)ccc2/C1=C/c1ccc[nH]1
IC50 (HepG2): 4.9 µM
IC50 (A549 [4]): 1.5 µM

Cn1cccc(C(=O)Nc2ccc3c(c2)NC(=O)/C3=C\c2ccc[nH]2)c1=O
IC50 (HepG2): 7 µM
IC50 (A549 [4]): 5.9 µM

O=C1Nc2cc(NC(=O)c3cccn(CCO)c3=O)ccc2/C1=C/c1ccc[nH]1
IC50 (HepG2): 3.9 µM
IC50 (A549 [4]): 4.5 µM

Cc1[nH]c(/C=C2\C(=O)Nc3cc(NC(=O)c4cccn(-c5ccc(F)cc5)c4=O)ccc32)c(C)c1C(=O)O
IC50 (HepG2): 6.1 µM
IC50 (A549 [4]): 6.3 µM
IC50 (A549 [7]): 7.9 µM
IC50 (A549 [8]): > 10 µM

Cc1[nH]c(/C=C2\C(=O)Nc3cc(NC(=O)c4cccn(C)c4=O)ccc32)c(C)c1C(=O)O
IC50 (HepG2): 8.1 µM
IC50 (A549 [4]): 6.6 µM

O=C1Nc2cc(NC(=O)c3c[nH]cc(-c4ccc(F)cc4)c3=O)ccc2/C1=C/c1ccc[nH]1
IC50 (HepG2): 1.4 µM
IC50 (A549 [4]): 0.5 µM
IC50 (A549 [7]): 6.6 µM
IC50 (A549 [8]): 7.8 µM

COc1ccc(-c2c[nH]cc(C(=O)Nc3ccc4c(c3)NC(=O)/C4=C\c3ccc[nH]3)c2=O)cc1
IC50 (HepG2): 0.8 µM
IC50 (A549 [4]): 0.6 µM

O=C1Nc2cc(NC(=O)c3c[nH]cc(-c4ccccc4)c3=O)ccc2/C1=C/c1ccc[nH]1
IC50 (HepG2): 1.1 µM
IC50 (Aurora kinase B): 0.0331 µM
IC50 (A549 [4]): 0.5 µM

Cc1ccc(-c2c[nH]cc(C(=O)Nc3ccc4c(c3)NC(=O)/C4=C\c3ccc[nH]3)c2=O)cc1
IC50 (HepG2): 0.7 µM
IC50 (A549 [4]): 0.5 µM

O=C1Nc2cc(NC(=O)c3c[nH]cc(-c4ccc(Cl)cc4)c3=O)ccc2/C1=C/c1ccc[nH]1
IC50 (HepG2): 0.7 µM
IC50 (A549 [4]): < 0.1 µM

O=C1Nc2cc(NC(=O)c3c[nH]cc(-c4ccc(C(F)(F)F)cc4)c3=O)ccc2/C1=C/c1ccc[nH]1
IC50 (HepG2): 0.7 µM
IC50 (A549 [4]): 0.5 µM

O=C1Nc2cc(NC(=O)c3c[nH]cc(-c4cccc(Cl)c4)c3=O)ccc2/C1=C/c1ccc[nH]1
IC50 (HepG2): 0.6 µM
IC50 (A549 [4]): 0.5 µM

Cc1c[nH]cc(C(=O)Nc2ccc3c(c2)NC(=O)/C3=C\c2ccc[nH]2)c1=O
IC50 (HepG2): 3.1 µM
IC50 (A549 [4]): 5.5 µM

COc1ccc(-c2c[nH]cc(C(=O)Nc3ccc4c(c3)NC(=O)/C4=C\c3[nH]c(C)c(C(=O)O)c3C)c2=O)cc1
IC50 (HepG2): > 10 µM
IC50 (A549 [4]): > 10 µM

Cc1[nH]c(/C=C2\C(=O)Nc3cc(NC(=O)c4c[nH]cc(-c5ccc(F)cc5)c4=O)ccc32)c(C)c1C(=O)N1CCN(C)CC1
IC50 (HepG2): 0.7 µM
IC50 (A549 [4]): 0.6 µM

Cc1[nH]c(/C=C2\C(=O)Nc3cc(NC(=O)c4c[nH]cc(-c5ccc(F)cc5)c4=O)ccc32)c(C)c1CC(=O)N1CCN(C)CC1
IC50 (HepG2): 0.7 µM
IC50 (A549 [4]): 0.6 µM

Cc1[nH]c(/C=C2\C(=O)Nc3cc(NC(=O)c4c[nH]cc(-c5ccc(F)cc5)c4=O)ccc32)c(C)c1C(=O)N1CCOCC1
IC50 (HepG2): 6.7 µM
IC50 (A549 [4]): 5.8 µM

Cc1[nH]c(/C=C2\C(=O)Nc3cc(NC(=O)c4c[nH]cc(-c5ccc(F)cc5)c4=O)ccc32)c(C)c1CC(=O)N1CCOCC1
IC50 (HepG2): 6.7 µM
IC50 (A549 [4]): 5.2 µM

CCN(CCO)CCCOc1ccc2c(Nc3cc(CC(=O)Nc4cccc(F)c4)[nH]n3)ncnc2c1 [DEFOSBARASERTIB]
IC50 (HepG2): 0.1 µM
IC50 (A549 [4]): 0.1 µM
IC50 (A549 [7]): 8.3 µM
IC50 (A549 [8]): 5.4 µM
